Test results as given in US11780893B2, “Kv1.3 blockers” (Zealand Pharma A/S, priority 2019, dated 2023).
Bridge positions count the residues as written; N and C are the ends. Square brackets hold non-standard residues; d marks the D form. Peptide text beside a SMILES is read from it. Nle = CCCC[C@H](N)C(=O)O

Columns and labels:
Kv1.6 = target: T1, Kv1.6 (Homo sapiens, UniProt P17658); test: cell-based; details: for IC50: CHO cells, whole-cell patch clamp, read-out: Potency IC50 (nM) Kv1.6
T1 construct: expressed in transfected cells; host or cells: Chinese Hamster Ovary (CHO)

Rat whole blood = Rat whole blood (Rattus norvegicus, UniProt P15384)
Kv1.1 = target: T2, Kv1.1 (Homo sapiens, UniProt Q09470); test: cell-based; details: for IC50: CHO cells, whole-cell patch clamp, read-out: Potency IC50 (nM) Kv1.1; for Selectivity Kv1.1/Kv1.3: ratio IC50[Kv1.1]/IC50[Kv1.3]
T2 construct: expressed in transfected cells; host or cells: Chinese Hamster Ovary (CHO)

Kv1.3 = target: T3, Kv1.3 (Homo sapiens, UniProt P22001); test: cell-based; details: CHO cells, whole-cell patch clamp; read-out: Potency IC50 (nM) Kv1.3
T3 construct: expressed in transfected cells; host or cells: Chinese Hamster Ovary (CHO)

[1] = target: T4, human Kv1.3 voltage-gated K+ channel (Homo sapiens, UniProt P22001); test: cell-based; details: inhibition of thallium flux, CHO-DUKX cells with human Kv1.3; read-out: IC50
T4 construct: host or cells: CHO-DUKX

Kv1.2 = target: T5, Kv1.2 (Homo sapiens, UniProt P16389); test: cell-based; details: CHO cells, whole-cell patch clamp; read-out: Potency IC50 (nM) Kv1.2
T5 construct: expressed in transfected cells; host or cells: Chinese Hamster Ovary (CHO)
T5 sequence (P16389 whole entry): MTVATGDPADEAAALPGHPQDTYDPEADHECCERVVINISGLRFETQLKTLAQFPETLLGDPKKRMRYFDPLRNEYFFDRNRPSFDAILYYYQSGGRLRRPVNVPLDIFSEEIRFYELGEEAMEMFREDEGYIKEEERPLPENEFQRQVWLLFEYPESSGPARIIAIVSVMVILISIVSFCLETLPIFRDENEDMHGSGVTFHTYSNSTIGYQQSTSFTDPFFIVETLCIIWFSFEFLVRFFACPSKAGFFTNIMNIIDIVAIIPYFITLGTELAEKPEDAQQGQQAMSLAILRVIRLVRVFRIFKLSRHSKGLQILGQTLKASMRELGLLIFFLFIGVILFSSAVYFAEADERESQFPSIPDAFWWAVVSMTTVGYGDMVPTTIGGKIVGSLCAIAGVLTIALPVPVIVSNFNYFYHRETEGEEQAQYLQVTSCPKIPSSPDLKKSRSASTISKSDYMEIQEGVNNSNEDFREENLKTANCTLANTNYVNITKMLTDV

T3 sequence (P22001 whole entry): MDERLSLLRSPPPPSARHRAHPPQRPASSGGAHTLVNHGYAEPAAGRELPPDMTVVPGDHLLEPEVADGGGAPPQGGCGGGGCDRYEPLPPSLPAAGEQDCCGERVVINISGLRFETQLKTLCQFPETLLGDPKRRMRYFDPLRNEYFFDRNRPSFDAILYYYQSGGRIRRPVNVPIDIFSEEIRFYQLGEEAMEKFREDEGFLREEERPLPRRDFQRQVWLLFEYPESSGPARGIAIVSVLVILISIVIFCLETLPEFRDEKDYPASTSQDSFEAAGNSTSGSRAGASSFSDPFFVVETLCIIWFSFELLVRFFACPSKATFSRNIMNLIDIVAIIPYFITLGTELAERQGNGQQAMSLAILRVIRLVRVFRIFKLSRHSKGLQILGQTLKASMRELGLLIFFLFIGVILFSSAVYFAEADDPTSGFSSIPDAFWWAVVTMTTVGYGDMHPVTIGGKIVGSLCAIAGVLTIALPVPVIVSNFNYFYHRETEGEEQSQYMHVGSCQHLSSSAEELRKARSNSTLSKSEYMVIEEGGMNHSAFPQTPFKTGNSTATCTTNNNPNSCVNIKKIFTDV
T4 sequence (P22001 whole entry): as above
T1 sequence (P17658 whole entry): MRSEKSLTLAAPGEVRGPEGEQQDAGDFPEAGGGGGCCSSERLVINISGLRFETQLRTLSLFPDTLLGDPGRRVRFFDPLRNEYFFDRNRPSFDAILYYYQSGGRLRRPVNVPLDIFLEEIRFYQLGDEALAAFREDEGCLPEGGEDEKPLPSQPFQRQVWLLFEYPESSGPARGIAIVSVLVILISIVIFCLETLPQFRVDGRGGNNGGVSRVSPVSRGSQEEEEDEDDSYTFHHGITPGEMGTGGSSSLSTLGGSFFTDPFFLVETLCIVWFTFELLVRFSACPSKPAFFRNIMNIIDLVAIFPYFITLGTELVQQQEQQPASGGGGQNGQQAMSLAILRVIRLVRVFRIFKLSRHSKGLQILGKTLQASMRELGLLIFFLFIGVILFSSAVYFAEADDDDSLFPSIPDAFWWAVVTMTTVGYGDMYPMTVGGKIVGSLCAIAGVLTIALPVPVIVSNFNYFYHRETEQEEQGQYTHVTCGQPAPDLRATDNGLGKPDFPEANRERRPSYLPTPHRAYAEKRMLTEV
T2 sequence (Q09470 whole entry): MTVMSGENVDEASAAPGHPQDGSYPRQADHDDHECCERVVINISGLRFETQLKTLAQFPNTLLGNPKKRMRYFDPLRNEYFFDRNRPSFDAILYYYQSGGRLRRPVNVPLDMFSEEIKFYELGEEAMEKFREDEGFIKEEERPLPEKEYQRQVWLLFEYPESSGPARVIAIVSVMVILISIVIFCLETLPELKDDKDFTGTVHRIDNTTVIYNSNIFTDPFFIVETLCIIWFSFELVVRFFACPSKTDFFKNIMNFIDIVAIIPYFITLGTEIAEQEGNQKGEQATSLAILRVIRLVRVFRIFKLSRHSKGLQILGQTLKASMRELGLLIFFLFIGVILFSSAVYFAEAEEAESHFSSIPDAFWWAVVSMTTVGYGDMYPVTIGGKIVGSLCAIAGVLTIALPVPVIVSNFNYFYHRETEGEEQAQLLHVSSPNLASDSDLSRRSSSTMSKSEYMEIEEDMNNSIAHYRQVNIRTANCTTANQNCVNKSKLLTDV
Chain of Rat whole blood (P15384 whole entry): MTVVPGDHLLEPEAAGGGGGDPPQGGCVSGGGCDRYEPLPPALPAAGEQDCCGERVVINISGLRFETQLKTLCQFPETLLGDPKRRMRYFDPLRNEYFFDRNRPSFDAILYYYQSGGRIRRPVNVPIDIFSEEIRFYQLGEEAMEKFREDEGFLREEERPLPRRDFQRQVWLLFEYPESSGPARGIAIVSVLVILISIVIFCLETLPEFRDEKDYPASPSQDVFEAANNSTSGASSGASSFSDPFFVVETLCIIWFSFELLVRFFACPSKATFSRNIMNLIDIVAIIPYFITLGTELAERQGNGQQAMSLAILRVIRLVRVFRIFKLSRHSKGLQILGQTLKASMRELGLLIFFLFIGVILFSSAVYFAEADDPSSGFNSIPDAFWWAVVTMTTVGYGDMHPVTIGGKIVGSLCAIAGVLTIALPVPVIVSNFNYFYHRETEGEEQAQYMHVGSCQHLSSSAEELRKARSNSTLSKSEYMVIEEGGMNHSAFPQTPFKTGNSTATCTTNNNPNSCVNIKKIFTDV

Compound | IC50 (Kv1.6) [nM] | IC50 (Rat whole blood) [nM] | IC50 (Kv1.1) [nM] | Selectivity Kv1.1/Kv1.3 (Kv1.1) | IC50 (Kv1.3) [nM] | IC50 [1] [nM] | IC50 (Kv1.2) [nM] | Selectivity Kv1.6/Kv1.3 (Kv1.6; ratio IC50[Kv1.6]/IC50[Kv1.3])
CC[C@H](C)[C@@H]1NC(=O)[C@H](C)NC(=O)[C@H](CCCCN)NC(=O)[C@H](CC(C)C)NC(=O)[C@@H]2CSSC[C@@H](C(=O)N[C@@H](Cc3ccc(O)cc3)C(=O)N3CCC[C@H]3C(=O)N[C@@H](CCCNC(=N)N)C(N)=O)NC(=O)[C@H](CCCCN)NC(=O)[C@@H]3CSSC[C@H](NC(=O)[C@H](CCC(=O)O)NC(=O)[C@H](CCCNC(=N)N)NC(=O)[C@H](CO)NC(=O)[C@H](C)NC(=O)[C@H](CO)NC(=O)[C@@H](NC(=O)[C@H](CCCNC(=N)N)NC(=O)[C@H](CCSC)NC(=O)[C@H](CC(=O)O)NC(=O)[C@H](CCSC)NC(=O)[C@@H](N)CC(N)=O)CSSC[C@H](NC(=O)[C@H](CCCCN)NC(=O)CNC(=O)[C@H](Cc4ccccc4)NC(=O)[C@H]([C@@H](C)CC)NC(=O)[C@H](CO)NC(=O)CNC1=O)C(=O)N[C@@H](CCSC)C(=O)N[C@@H](CC(N)=O)C(=O)N[C@@H](CCCCN)C(=O)N[C@@H](CCCCN)C(=O)N3)C(=O)N[C@@H](CCCCN)C(=O)N[C@@H](CCC(N)=O)C(=O)N[C@@H](CCCCN)C(=O)N2 [Compound 27] (H-NMDMRCSASRECKQKCLKAIGSIFGKCMNKKCKCYPR-NH2; disulfide 6-27, 12-32, 16-34) | 206 | ≤ 1 | > 3000 | >25900 | 0.12 | 0.065 | 11 | 
CCCC[C@@H]1NC(=O)[C@@H]2CSSC[C@H](NC(=O)[C@H](CCCCN)NC(=O)[C@H](CO)NC(C)=O)C(=O)N[C@@H](CO)C(=O)N[C@@H](C)C(=O)N[C@@H](CO)C(=O)N[C@@H](C(C)C)C(=O)N[C@@H](CCC(=O)O)C(=O)N[C@H]3CSSC[C@H](NC(=O)[C@H](CCCCN)NC(=O)[C@H](CCCCN)NC(=O)[C@H](CC(N)=O)NC1=O)C(=O)N[C@@H](CCCCN)C(=O)N[C@H](C(=O)N[C@@H](Cc1ccc(O)cc1)C(=O)N1CCC[C@H]1C(=O)N[C@@H](CCCNC(=N)N)C(N)=O)CSSC[C@H](NC(=O)[C@H](CCCCN)NC(=O)[C@H](CCC(N)=O)NC(=O)[C@H](CCCCN)NC3=O)C(=O)N[C@@H](CC(C)C)C(=O)N[C@@H](CCCCN)C(=O)N[C@@H](C)C(=O)N[C@@H]([C@@H](C)CC)C(=O)NCC(=O)N[C@@H](CO)C(=O)N[C@@H]([C@@H](C)CC)C(=O)N[C@@H](Cc1ccccc1)C(=O)NCC(=O)N[C@@H](CCCCN)C(=O)N2 [Compound 107] (Ac-SKCSASVECKQKCLKAIGSIFGKC[Nle]NKKCKCYPR-NH2; disulfide 3-24, 9-29, 13-31) | 1450 | ≤ 1 | > 3000 | >3000 | 1 | 0.084 | 196 | 
CCCC[C@@H]1NC(=O)[C@@H]2CSSC[C@H](NC(=O)[C@H](CCCNC(=N)N)NC(=O)[C@H](CCCC)NC(=O)[C@H](CC(=O)O)NC(=O)[C@H](CCCC)NC(=O)[C@@H](N)CC(N)=O)C(=O)N[C@@H](CCCNC(=N)N)C(=O)N[C@@H](C)C(=O)N[C@@H](CO)C(=O)N[C@@H](C(C)C)C(=O)N[C@@H](CCC(=O)O)C(=O)N[C@H]3CSSC[C@H](NC(=O)[C@H](CCCCN)NC(=O)[C@H](CCCCN)NC(=O)[C@H](CC(N)=O)NC1=O)C(=O)N[C@@H](CCCCN)C(=O)N[C@H](C(=O)N[C@@H](Cc1ccc(O)cc1)C(=O)N1CCC[C@H]1C(=O)N[C@@H](CCCNC(=N)N)C(N)=O)CSSC[C@H](NC(=O)[C@H](CCCCN)NC(=O)[C@H](CCC(N)=O)NC(=O)[C@H](CCCCN)NC3=O)C(=O)N[C@@H](CC(C)C)C(=O)N[C@@H](CCCCN)C(=O)N[C@@H](C)C(=O)N[C@@H]([C@@H](C)CC)C(=O)NCC(=O)N[C@@H](CO)C(=O)N[C@@H]([C@@H](C)CC)C(=O)N[C@@H](Cc1ccccc1)C(=O)NCC(=O)N[C@@H](CCCCN)C(=O)N2 [Compound 42] (H-N[Nle]D[Nle]RCRASVECKQKCLKAIGSIFGKC[Nle]NKKCKCYPR-NH2; disulfide 6-27, 12-32, 16-34) | 316 | ≤ 1 | > 3000 | >18600 | 0.16 | 0.087 | 109 | 
CCCC[C@H](NC(=O)[C@@H]1CCCN1)C(=O)N[C@@H](CCC(=O)O)C(=O)N[C@@H](CCCC)C(=O)N[C@@H](CCCNC(=N)N)C(=O)N[C@H]1CSSC[C@@H]2NC(=O)[C@H](CCCCN)NC(=O)CNC(=O)[C@H](Cc3ccccc3)NC(=O)[C@H]([C@@H](C)CC)NC(=O)[C@H](CO)NC(=O)CNC(=O)[C@H]([C@@H](C)CC)NC(=O)[C@H](C)NC(=O)[C@H](C)NC(=O)[C@H](CC(C)C)NC(=O)[C@@H]3CSSC[C@@H](C(=O)N[C@@H](Cc4ccc(O)cc4)C(=O)N4CCC[C@H]4C(=O)N[C@@H](CCCNC(=N)N)C(N)=O)NC(=O)[C@H](CCCCN)NC(=O)[C@H](CSSC[C@H](NC(=O)[C@H](CCC(=O)O)NC(=O)[C@H](C(C)C)NC(=O)[C@H](CO)NC(=O)[C@H](C)NC(=O)[C@H](CO)NC1=O)C(=O)N[C@@H](CCCCN)C(=O)N[C@@H](CCC(N)=O)C(=O)N[C@@H](CCCCN)C(=O)N3)NC(=O)[C@H](CCCCN)NC(=O)[C@H](CCCCN)NC(=O)[C@H](CC(N)=O)NC(=O)[C@H](CCCC)NC2=O [Compound 98] (H-P[Nle]E[Nle]RCSASVECKQKCLAAIGSIFGKC[Nle]NKKCKCYPR-NH2; disulfide 6-27, 12-32, 16-34) | > 3000 | ≤ 1 | > 3000 | >16200 | 0.18 | 0.11 | 311 | >16200
CCCC[C@@H]1NC(=O)[C@@H]2CSSC[C@H](NC(=O)[C@H](CCCNC(=N)N)NC(=O)[C@H](CC(C)C)NC(C)=O)C(=O)N[C@@H](CO)C(=O)N[C@@H](C)C(=O)N[C@@H](CO)C(=O)N[C@@H](C(C)C)C(=O)N[C@@H](CCC(=O)O)C(=O)N[C@H]3CSSC[C@H](NC(=O)[C@H](CCCCN)NC(=O)[C@H](CCCCN)NC(=O)[C@H](CC(N)=O)NC1=O)C(=O)N[C@@H](CCCCN)C(=O)N[C@H](C(=O)N[C@@H](Cc1ccc(O)cc1)C(=O)N1CCC[C@H]1C(=O)N[C@@H](CCCNC(=N)N)C(N)=O)CSSC[C@H](NC(=O)[C@H](CCCCN)NC(=O)[C@H](CCC(N)=O)NC(=O)[C@H](CCCCN)NC3=O)C(=O)N[C@@H](CC(C)C)C(=O)N[C@@H](CCCCN)C(=O)N[C@@H](C)C(=O)N[C@@H]([C@@H](C)CC)C(=O)NCC(=O)N[C@@H](CO)C(=O)N[C@@H]([C@@H](C)CC)C(=O)N[C@@H](Cc1ccccc1)C(=O)NCC(=O)N[C@@H](CCCCN)C(=O)N2 [Compound 108] (Ac-LRCSASVECKQKCLKAIGSIFGKC[Nle]NKKCKCYPR-NH2; disulfide 3-24, 9-29, 13-31) | 2460 | ≤ 1 | > 3000 | >8700 | 0.35 | 0.1 | 122 | 
